Measurements from patent publication US7763604B2, “Methods for administration of a farnesyl dibenzodiazepinone” (Thallion Pharma Ceuticals, Inc., priority 2005, dated 2010).

Experiments:
[1] = human pharmacokinetic parameters extrapolated from allometric equations; conditions: estimated from allometric equations
Experimental: (§1) An analysis was performed to derive allometric equations for Formula I pharmacokinetic parameters using Formula I plasma concentration-time data from three species, including mouse, rat, and monkey, and to estimate human pharmacokinetic parameters from those allometric equations.
(§2) Plasma concentrations of Formula I were obtained from mice, rats, and monkeys following intravenous injection or continuous infusion. Formula I pharmacokinetic parameters in mice, rats, and monkeys were estimated using population pharmacokinetic analysis, a function of the software program NONMEM™ (version 5). Typical population pharmacokinetic parameters for Formula I in humans were extrapolated from allometric equations that were derived from pharmacokinetic parameters estimated in the three animal species.
Allometric equations for the pharmacokinetic parameters clearance (CL), volume of distribution (V1 and V2), and inter-compartmental clearance (Q) were derived. The population PK parameters of the compound of Formula I for humans were extrapolated from the allometric equations, and the estimated values are shown in Table 6. Simulated Formula I plasma concentration-time profiles in humans are shown in FIG. 13 and estimated end of infusion concentrations are provided in Table 7.

[2] = tested on: human glioma (U-87MG) tumor xenograft; test: human U-87MG glioblastoma xenograft antitumor efficacy; format: in vivo, female athymic (nu/nu) nude mice; conditions: SC 30 mg/kg q1d×5 over 2 weeks
Description: In this model and the models of Examples 3, 6 and 7, tumor growth was followed every other day by measuring tumor length (L) and width (W) using a calliper. Measurements were converted to tumor volumes (TV; mm^3) using the standard formula, TV=(L×W^2)/2. Tumor volume at day n was expressed as relative tumor volume (RTV) according to the following formula RTV=TVn/TV0, where TVn is the tumor volume at day n and TV0 is the tumor volume at day 0. The percentage of tumor growth inhibition (% TGI) was determined by 1−(mean RTV of treated group/mean RTV of control group)×100. […] Statistical analysis was calculated by the two-tailed unpaired t test using the Prism software. Animals were weighed at least twice weekly during and after treatment until completion of the study. The mice were examined frequently for overt signs of any adverse drug-related side effects.
The human U-87 MG (ATCC® no. HTB-14™) glioblastoma antitumor efficacy study was performed at INSERM U318 (Grenoble, France). The U-87MG cell line is derived from a brain glioblastoma of a person. […]
For the human glioblastoma antitumor efficacy study, female athymic (nu/nu) nude mice (6-7 weeks of age) were inoculated SC with 5×10^6 U-87MG cells (day 0). […] Tumor growth inhibition (TGI) was calculated on day 34 post tumor cell inoculation, at which time some animals from the vehicle control group had to be sacrificed due to tumor burden.

[3] = population pharmacokinetic analysis, monkey (CIV); format: in vivo; parameters: mean clearance: unit not given here; conditions: for mean clearance: monkeys, 14-day continuous infusion
Experimental: as §1, §2
A two-compartment model with a first-order elimination from the central compartment adequately described Formula I plasma concentration-time profiles following intravenous bolus injection (30 mg/kg) in mice and rats, 7-day continuous infusion in rats (50 to 170 mg/kg/day), and 14-day continuous infusion in monkeys (5 to 30 mg/kg/day).
Application of a two-compartment model with Michaelis-Menten elimination better described the concentration data in monkeys than the linear model. Because the target concentration in humans is 2 μM, at which linear pharmacokinetics is assumed, all simulations for human plasma concentrations were performed based on a two-compartment model with linear first-order elimination.

Question: What does the source list for CC(C)=CCC/C(C)=C/CC/C(C)=C/CN1C(=O)c2cccc(O)c2Nc2c(O)cc(O)cc21 [Formula I, 10-farnesyl-4,6,8-trihydroxy-dibenzodiazepin-11-one]?
Answer: Ke [1]: 1.192 h⁻¹; Q [1]: 0.533 mL/min/kg; t1/2,α [1]: 0.509 h; t1/2,β [1]: 13.8 h; body weight loss [2]: no significant body weight loss; Ke ([3]; Monkey (CIV), population PK): 2.172 h⁻¹; mean clearance ([3]; 5 mg/kg/day): 0.63; mean clearance ([3]; 15 mg/kg/day): 0.57; mean clearance ([3]; 30 mg/kg/day): 0.23
